Results: BigSolDB 2.1

COc1cc(Cl)nc(N)n1
Details | solubility (mole fraction)
in 1,4-dioxane, 283.15 K | 0.0229
in 1,4-dioxane, 288.15 K | 0.0264
in 1,4-dioxane, 293.15 K | 0.0316
in 1,4-dioxane, 298.15 K | 0.0367
in 1,4-dioxane, 303.15 K | 0.0422
in 1,4-dioxane, 308.15 K | 0.0493
in 1,4-dioxane, 313.15 K | 0.0569
in 1,4-dioxane, 318.15 K | 0.0648
in 1,4-dioxane, 323.15 K | 0.0746
in DMF, 273.15 K | 0.0496
in DMF, 278.15 K | 0.0544
in DMF, 283.15 K | 0.0595
in DMF, 288.15 K | 0.0648
in DMF, 293.15 K | 0.0712
in DMF, 298.15 K | 0.0775
in DMF, 303.15 K | 0.0846
in DMF, 308.15 K | 0.0926
in DMF, 313.15 K | 0.101
in DMF, 318.15 K | 0.11
in DMF, 323.15 K | 0.12
in acetone, 273.15 K | 0.0076
in acetone, 278.15 K | 0.00947
in acetone, 283.15 K | 0.0117
in acetone, 288.15 K | 0.0143
in acetone, 293.15 K | 0.0174
in acetone, 298.15 K | 0.0211
in acetone, 303.15 K | 0.0255
in acetone, 308.15 K | 0.0302
in acetone, 313.15 K | 0.0358
in acetone, 318.15 K | 0.0422
in acetone, 323.15 K | 0.0492
in acetonitrile, 273.15 K | 0.00136
in acetonitrile, 278.15 K | 0.00174
in acetonitrile, 283.15 K | 0.00223
in acetonitrile, 288.15 K | 0.00276
in acetonitrile, 293.15 K | 0.00345
in acetonitrile, 298.15 K | 0.00426
in acetonitrile, 303.15 K | 0.00523
in acetonitrile, 308.15 K | 0.00633
in acetonitrile, 313.15 K | 0.00773
in acetonitrile, 318.15 K | 0.00927
in acetonitrile, 323.15 K | 0.0111
in chloroform, 273.15 K | 0.00237
in chloroform, 278.15 K | 0.00306
in chloroform, 283.15 K | 0.00389
in chloroform, 288.15 K | 0.00492
in chloroform, 293.15 K | 0.00612
in chloroform, 298.15 K | 0.00758
in chloroform, 303.15 K | 0.00924
in chloroform, 308.15 K | 0.0114
in chloroform, 313.15 K | 0.0138
in chloroform, 318.15 K | 0.0166
in chloroform, 323.15 K | 0.0197
in ethanol, 273.15 K | 0.00128
in ethanol, 278.15 K | 0.00163
in ethanol, 283.15 K | 0.00206
in ethanol, 288.15 K | 0.00259
in ethanol, 293.15 K | 0.00323
in ethanol, 298.15 K | 0.00396
in ethanol, 303.15 K | 0.00488
in ethanol, 308.15 K | 0.00598
in ethanol, 313.15 K | 0.00733
in ethanol, 318.15 K | 0.00886
in ethanol, 323.15 K | 0.0106
in ethyl acetate, 273.15 K | 0.00547
in ethyl acetate, 278.15 K | 0.00687
in ethyl acetate, 283.15 K | 0.00856
in ethyl acetate, 288.15 K | 0.0105
in ethyl acetate, 293.15 K | 0.0129
in ethyl acetate, 298.15 K | 0.0155
in ethyl acetate, 303.15 K | 0.0188
in ethyl acetate, 308.15 K | 0.023
in ethyl acetate, 313.15 K | 0.0276
in ethyl acetate, 318.15 K | 0.033
in ethyl acetate, 323.15 K | 0.0389
in ethylbenzene, 273.15 K | 0.000515
in ethylbenzene, 278.15 K | 0.000689
in ethylbenzene, 283.15 K | 0.000887
in ethylbenzene, 288.15 K | 0.00115
in ethylbenzene, 293.15 K | 0.0015
in ethylbenzene, 298.15 K | 0.00184
in ethylbenzene, 303.15 K | 0.00238
in ethylbenzene, 308.15 K | 0.00299
in ethylbenzene, 313.15 K | 0.00367
in ethylbenzene, 318.15 K | 0.00462
in ethylbenzene, 323.15 K | 0.00567
in isopropanol, 273.15 K | 0.00113
in isopropanol, 278.15 K | 0.00149
in isopropanol, 283.15 K | 0.0019
in isopropanol, 288.15 K | 0.00241
in isopropanol, 293.15 K | 0.00302
in isopropanol, 298.15 K | 0.00377
in isopropanol, 303.15 K | 0.0046
in isopropanol, 308.15 K | 0.00574
in isopropanol, 313.15 K | 0.00701
in isopropanol, 318.15 K | 0.00857
in isopropanol, 323.15 K | 0.0105
in methanol, 273.15 K | 0.00126
in methanol, 278.15 K | 0.00159
in methanol, 283.15 K | 0.00199
in methanol, 288.15 K | 0.00246
in methanol, 293.15 K | 0.0031
in methanol, 298.15 K | 0.00375
in methanol, 303.15 K | 0.00463
in methanol, 308.15 K | 0.00555
in methanol, 313.15 K | 0.00675
in methanol, 318.15 K | 0.00809
in methanol, 323.15 K | 0.00962
in n-propanol, 273.15 K | 0.00122
in n-propanol, 278.15 K | 0.00158
in n-propanol, 283.15 K | 0.00201
in n-propanol, 288.15 K | 0.00256
in n-propanol, 293.15 K | 0.00323
in n-propanol, 298.15 K | 0.00407
in n-propanol, 303.15 K | 0.00502
in n-propanol, 308.15 K | 0.00618
in n-propanol, 313.15 K | 0.0075
in n-propanol, 318.15 K | 0.00916
in n-propanol, 323.15 K | 0.0113
in toluene, 273.15 K | 0.000694
in toluene, 278.15 K | 0.000889
in toluene, 283.15 K | 0.00115
in toluene, 288.15 K | 0.00148
in toluene, 293.15 K | 0.0019
in toluene, 298.15 K | 0.00241
in toluene, 303.15 K | 0.003
in toluene, 308.15 K | 0.00374
in toluene, 313.15 K | 0.00463
in toluene, 318.15 K | 0.00573
in toluene, 323.15 K | 0.00703
